Legend:
glucocorticoid receptor = biological target: T1, glucocorticoid receptor (Homo sapiens, UniProt P04150); assay: fluorescence polarization competition assay (POLARSCREEN Glucocorticoid Receptor Competitor Assay Kit, Red); format: binding
T1 sequence (P04150 1-777): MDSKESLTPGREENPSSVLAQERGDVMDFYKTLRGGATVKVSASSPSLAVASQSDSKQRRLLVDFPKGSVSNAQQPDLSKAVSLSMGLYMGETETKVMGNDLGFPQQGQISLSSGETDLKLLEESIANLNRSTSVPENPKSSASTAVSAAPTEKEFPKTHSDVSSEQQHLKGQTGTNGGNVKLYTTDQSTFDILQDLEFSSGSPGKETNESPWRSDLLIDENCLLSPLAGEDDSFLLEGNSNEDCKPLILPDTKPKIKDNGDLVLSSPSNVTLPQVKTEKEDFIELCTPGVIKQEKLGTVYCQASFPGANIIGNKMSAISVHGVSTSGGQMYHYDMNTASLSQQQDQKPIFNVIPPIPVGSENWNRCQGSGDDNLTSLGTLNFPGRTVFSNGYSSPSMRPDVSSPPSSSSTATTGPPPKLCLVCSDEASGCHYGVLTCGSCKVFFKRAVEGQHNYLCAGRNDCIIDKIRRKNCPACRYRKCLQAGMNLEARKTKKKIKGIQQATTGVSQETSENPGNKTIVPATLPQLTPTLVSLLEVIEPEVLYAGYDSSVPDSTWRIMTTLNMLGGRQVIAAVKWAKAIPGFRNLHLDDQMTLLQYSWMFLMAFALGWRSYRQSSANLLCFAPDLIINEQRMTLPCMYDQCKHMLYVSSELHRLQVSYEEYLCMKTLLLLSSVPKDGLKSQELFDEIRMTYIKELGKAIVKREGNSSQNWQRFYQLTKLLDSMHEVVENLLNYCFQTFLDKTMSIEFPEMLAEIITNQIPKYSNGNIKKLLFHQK
Method: The principle of the assay is to determine the binding affinity of a small molecule compound to glucocorticoid receptor by measuring the decrease in polarization caused by the failure of the fluormone tracer to bind to the glucocorticoid receptor in the presence of a small molecule compound that competitively binds to the glucocorticoid receptor.
The excitation wavelength used for the measurement was 535 nm, and the emission wavelength was 590 nm. This experiment was performed three times using the same method and the average value was calculated. A dose-response curve was derived using the measured values, and the IC50 value was calculated by finding the concentration of the sample corresponding to half of the highest measured value.

[1] = system: intracellular glucocorticoid receptor; assay: luciferase assay in GR-GAL4 Reporter (Luc)-HEK293 cells; format: cell-based; settings: different concentrations, 1 hour before dexamethasone 20 nM, 24 hours incubation
Method: In this Example, transfected cells GR-GAL4 Reporter (Luc)-HEK293 (BPS Bioscience, USA) containing a recombinant gene in which luciferase is recombined into the promoter site of GRE were used. Transformed cells were seeded at 30,000 cells per well in 96 wells and stabilized for 16 hours. […] After 1 hour, the cells were treated with dexamethasone, a glucocorticoid agonist, at a concentration of 20 nM and incubated for 24 hours. 100 μL of ONE-STEP™ Luciferase Assay System (BPS Bioscience, USA) was added per well and reacted for 10 minutes, and then luminescence was measured using SpectraMax iD3 (Molecular Devices, USA).

3T3-L1 cells = assay: Oil Red O staining of MDI-differentiated 3T3-L1 preadipocytes (fat accumulation); format: cell-based; settings: 0.5 or 1 μM every 48 hours, 6 days of MDI differentiation
Method: To differentiate 3T3-L1 cells grown to a confluent state into adipocytes, they were cultured in DMEM medium supplemented with MDI {0.5 mM isobutyl-methylxanthine, 1 μM dexamethasone, and 5 μg/mL insulin} for 48 h, then cultured in DMEM medium supplemented with 5 μg/mL insulin for 48 h, and then cultured in a medium containing 10% fetal bovine serum for 48 h.
The cells were incubated for a total of 6 days, and the cultures were removed at which point differentiation was complete, followed by Oil Red O staining. The cells were fixed with 35 to 40% formaldehyde for 15 minutes, washed with PBS, and stained with Oil Red O solution for 20 minutes. After completion of staining, the cells were washed four times with PBS, dissolved in isopropanol (2-propanol), and O.D. values were measured at 515 nm.

C[C@@]1(C(=O)O)CC[C@]2(C)CC[C@]3(C)C4=CC(=O)c5c(cc(O)c(O)c5C=O)[C@]4(C)CC[C@@]3(C)[C@@H]2C1 [demethylzeylasteral, (2R,4aS,6aR,6aS,14aS,14bR)-9-formyl-10,11-dihydroxy-2,4a,6a,6a,14a-pentamethyl-8-oxo-1,3,4,5,6,13,14,14b-octahydropicene-2-carboxylic acid] was tested, and the IC50 (glucocorticoid receptor) was 1190 nM, the “inhibitory effect on intracellular glucocorticoid receptor activity (luminescence)” value [1] was “inhibited intracellular glucocorticoid receptor activity in a concentration-dependent manner” and the “intracellular fat accumulation (Oil Red O, O.D. at 515 nm)” value (3T3-L1 cells) was “reduction of intracellular fat accumulation in a concentration-dependent manner”.

— patent US20260256714A1 (priority 2022, published 2026)
